Measured values reported in paper PMC8318231, “Rate-of-Kill (RoK) assays to triage large compound sets for Chagas disease drug discovery: Application to GSK Chagas Box” (PLoS Neglected Tropical Diseases, 2021).

Experiments:
TcCYP51 = details: formerly reported; cited from earlier work
[1] = tested on: T. cruzi intracellular amastigotes in H9c2 cells; test: Rate-of-Kill (RoK) high-content imaging assay, amastigotes per cell (AM/CELL) and curve descriptors; format: cell-based, Trypanosoma cruzi; set-up: key to ME_24h / ME_48h / ME_72h: % reduction in parasite burden (cidal response); t50pct_MCC50 / t50pct_Cmax: unit not given here; details: for ME_24h: 24h; for ME_48h: 48h; for ME_72h: 72h; for tlag_Cmax / t50pct_Cmax / t50%_Cmax: at Cmax; for ME_24h (%): maximum effect at 24 h; for ME_24h (%) / ME_48h (%) / ME_72h (%): RoK assay; for ME_48h (%): maximum effect at 48 h; for ME_72h (%): maximum effect at 72 h; for ME 24h (maximum effect at 24 hours, intracellular amastigotes): maximum percentage of parasite burden reduction reached by any concentration
Procedure, shortened: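 Readouts at each time point are amastigotes per cell and host nuclei count (cytotoxicity), from DRAQ5 high-content imaging. Infection: trypomastigotes on H9c2 at MOI 8 for 18 h. Dosing was 5 μM single point or 11 points, 1/3 steps from 50 μM. Effect scaled between 4 h infected and uninfected controls.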

Structure (SMILES) | CYP51 pIC50 (TcCYP51) | ME_24h ([1]; figure 5) | ME_48h ([1]; figure 5) | ME_72h ([1]; figure 5) | MCCE ([1]; RoK curve descriptor) [µM] | AM/CELL NORM ([1]; Time 4, sheet figure 4 A) | AM/CELL NORM ([1]; Time 24, sheet figure 4 A) | AM/CELL NORM ([1]; Time 48, sheet figure 4 A) | AM/CELL NORM ([1]; Time 72, sheet figure 4 A) | tlag_Cmax [1] [h] | t50pct_Cmax ([1]; figure 5) | tlag_Cmax ([1]; figure 5) | t50pct_MCC50 ([1]; at MCC50, figure 5) | tlag_MCC50 ([1]; at MCC50, figure 5) | MCC50 ([1]; figure 5) [µM] | MCCE ([1]; figure 5) | ME_24h (%) [1] [%] | ME_48h (%) [1] [%] | ME_72h (%) [1] [%] | ME 24h (maximum effect at 24 hours, intracellular amastigotes) [1] [%] | also measured
c1ccc(CCNCc2cncc3nc(-c4cnccn4)n(C4CCCCC4)c23)cc1 [TCMDC-143346] | 7 | -174.15 | -60.952 | 17.2662 | 0.2 | -7.276 | -174.15 | -60.952 | 6.4629 | 24.0 | 72 | 24 | 72 | 72 | 50 | 0.2058 | -174.2 | -61.0 | 17.3 | -174.15 | –
CC(=O)Nc1ccc(-c2noc(CC3CCCN(Cc4cccc(F)c4C)C3)n2)cc1 (stereo not drawn) [TCMDC-143362] | < 4 | 28.3063 | 60.2253 | 68.1396 | 1.9 | – | – | – | – | 4.0 | 48 | 4 | 72 | 24 | – | 1.852 | 28.3 | 60.2 | 68.1 | 73.518 | MCC50 ([1]; RoK curve descriptor): 5.6 µM; AM/CELL NORM ([1]; Time 4, figure 4 A): -3.298; AM/CELL NORM ([1]; Time 24, figure 4 A): 28.3063; AM/CELL NORM ([1]; Time 48, figure 4 A): 60.2253; AM/CELL NORM ([1]; Time 72, figure 4 A): 68.1396; t50%_Cmax [1]: 48.0 h; t50%_MCC50 ([1]; at MCC50): 72.0 h; tlag_MCC50 ([1]; at MCC50): 24.0 h; MCC50 ([1]; figure 5, in µM): 5.556
N#Cc1ccc(S(=O)(=O)N2CCC3(CCN(c4ccccc4)C3=O)CC2)cc1 [TCMDC-143371] | < 4 | -78.0559 | 40.2473 | 62.6058 | 1.2 | 10.0376 | -56.4995 | 45.4375 | 85.4584 | 36.0 | 72 | 36 | 72 | 48 | – | 1.235 | -78.1 | 40.3 | 62.6 | -50.5626 | MCC50 ([1]; RoK curve descriptor): 5.6 µM; t50%_Cmax [1]: 72.0 h; t50%_MCC50 ([1]; at MCC50): 72.0 h; tlag_MCC50 ([1]; at MCC50): 24.0 h; MCC50 ([1]; figure 5, in µM): 27.7778
CC(C)Nc1nccc(-c2c(-c3ccc(F)cc3)ncn2C2CCOCC2)n1 [TCMDC-143379] | < 4 | -22.482 | -3.3846 | 36.7081 | 0.2 | -6.859 | -37.6965 | -3.3846 | 36.7081 | 24.0 | 72 | 24 | 72 | 72 | 50 | 0.2058 | -22.5 | -3.4 | 36.7 | -22.482 | –
O=C(N1CCc2ccccc2CC1)C1(C(=O)N2CCC(n3c(=O)[nH]c4ncccc43)CC2)CC1.O=C(O)C(F)(F)F [TCMDC-143381] | 6.5 | -241.612 | -106.513 | 38.7809 | 1.9 | 8.613 | -274.305 | -155.332 | 34.067 | 24.0 | 72 | 24 | 72 | 72 | 50 | 1.852 | -241.6 | -106.5 | 38.8 | -241.612 | –
